The text below walks through data of article PMC11656837, “pH-Responsive Peptide Nanoparticles Deliver Macromolecules to Cells via Endosomal Membrane Nanoporation” (ACS Nano, 2024).

Data set [1] has as its system Chinese Hamster Ovary (CHO) cells. The data set is described as follows: Cytosolic delivery of yellow fluorescent protein (confocal microscopy). In kind it is cell-based. To be noted: 25 μM peptide, 3.5 μM external YFP, 37 °C. The protocol: To validate the dextran delivery experiments, we also delivered two separate fluorescent proteins of ∼27 kDa molecular weight to the cytosol of two different cell lines using C16-D-pHD108 (see Figure 7). HeLa cells were incubated overnight with 10 μM green fluorescent protein (GFP), and Chinese Hamster Ovary (CHO) cells were incubated overnight with 3.5 μM yellow fluorescent protein (YFP), with and without 25 μM C16-D-pHD108. Just before imaging, external GFP and YFP were washed off and replaced with TAMRA-dextran (red) or fluorescent protein mTurquoise (blue), respectively, to mark the cell boundaries and extracellular spaces. […] These cells, especially those incubated with the higher 10 μM concentration of GFP, show endosomes with entrapped FP, just as we observed for dextran delivery. […] The apparent nuclear concentration of GFP in cells incubated with GFP but no peptide is indistinguishable from the background. With an external concentration of 3.5 μM, the YFP concentration delivered to the cell cytosol ranges from 1 to 3 μM, with a median of about 1.2 μM or 35% of the external concentration. The apparent cytosolic concentration of YFP in cells incubated with YFP but no peptide is indistinguishable from the background. We also performed YFP delivery experiments at a 4 h time point, Supplemental Figure S4. […]
For fluorescent protein or fluorescein-(Fab)2 fragment delivery, HeLa cells were incubated at 37 °C overnight in the presence of GFP with and without C16-D-pHD108 and CHO cells were incubated at 37 °C overnight with YFP in the presence and absence of C16-D-pHD108. […] Quantitation of delivered protein was performed by comparing measured intensities from microscopy images of standard protein solutions of known concentrations. […]
E. YFP intensities from the nuclei and cytosol of the cells in panels A,B and C,D. The dotted lines are the intensities of standard reference solution of media only and 3.5 µM YFP measured at the same time under identical conditions. […]

The subject of data set [2] is HeLa cells. To be noted: 40 nM PE-III. From the text: For this, we use PE-III, the third domain of the Pseudomonas exotoxin. This 25 kDa enzyme ADP ribosylates ribosomal elongation factor 2, thereby blocking protein synthesis and triggering apoptosis. […] Thus, apoptosis will occur only if an exogenous agent, such as a peptide, enables cytosolic delivery of the 4 × 3 nm PE-III protein, Figure 2A.
Comparison of peptide concentration midpoints requires a constant concentration of PE-III in each experiment. […] The major disadvantage of the PE-III assay to detect delivery is that only a few molecules of active PE-III delivered to the cytosol[36] will produce a positive result. To partly mitigate this effect in the assays described below, we use a constant 40 nM PE-III. At such a low concentration, each endosome will contain an average of fewer than one PE-III molecule if we assume passive entrapment of the cargo (see the Supporting Information).
The no treatment (no tx) control group contained cells but no peptide or PE-III enzyme. The Alamar Blue intensity of this group was defined as 100% viability. Media alone without cells was defined as 0% viability.
The concentration range used for each peptide was adjusted according to preliminary measurements of activity in this assay. We assessed PE-III delivery by measuring cell viability using Alamar Blue.
Fifteen thousand HeLa cells were seeded in a clear bottom, black-walled 96-well plate overnight at 37 °C with 5% CO2 in complete media (DMEM + phenol red +10% FBS + antimycotic/antibiotic + nonessential amino acids). Cells were then washed once in PBS and treated with PE-III and peptide in serum-free media without phenol red, with a 50 μL total volume. After a 2-day incubation with treatment, 50 μL of 10% Alamar blue reagent diluted in serum-free media was added directly to each well (5% Alamar blue final) and incubated for 1.5 h at 37 °C. The plate was then read at 550 equiv/590 em on a Biotek plate reader. Untreated cells were used as a negative control, and MelP5-treated cells served as a positive control.

The procedure of data set [3]:
This was done by incubating 50 μM peptide under each experimental condition for 60 min, followed by centrifugation at 1400g to remove large aggregates, and by subsequent centrifugation at 11,000g to remove intermediate aggregates. Peptide concentration in solution before and after centrifugation was determined by reverse phase HPLC.
Dried peptides were reconstituted in 50 μL of PBS at pH 7 or at pH 5. The solutions were bath-sonicated briefly and incubated at room temperature for 30 min. Three aliquots of each sample were removed for analysis: one before centrifugation, one after centrifugation for 5 min at 1400g, and one after centrifugation for 10 min at 11,000g. These aliquots were diluted and analyzed by reverse phase HPLC. The integrated peak area of the tryptophan fluorescence peak was determined for each sample.

Each structure is given as a SMILES string.

On to `CCCCCCCCCCCCCCCC(=O)NCC(=O)N[C@@H](C(=O)NCC(=O)N[C@H](CCC(=O)O)C(=O)N[C@@H](C(=O)N[C@H](CC(C)C)C(=O)N[C@H](Cc1c[nH]cn1)C(=O)N[C@H](CCC(=O)O)C(=O)N[C@H](CC(C)C)C(=O)N[C@H](C)C(=O)N[C@H](CCC(=O)O)C(=O)NCC(=O)N[C@H](CC(C)C)C(=O)N1CCC[C@@H]1C(=O)N[C@H](CCC(=O)O)C(=O)N[C@H](CC(C)C)C(=O)N[C@H](CCC(N)=O)C(=O)N[C@H](CCC(=O)O)C(=O)N[C@H](Cc1c[nH]c2ccccc12)C(=O)N[C@@H](C(=O)N[C@H](Cc1c[nH]cn1)C(=O)N[C@H](C)C(=O)N[C@H](C)C(=O)N[C@H](CCC(N)=O)C(=O)N[C@H](CCC(N)=O)C(=O)N[C@H](CC(C)C)C(N)=O)[C@H](C)CC)C(C)C)[C@H](C)CC` [C16-D-pHD108], for which the “YFP delivered to cytosol, median as percent of the external solution” value in data set [1] (4 h) is reported as “about 13%”. Further, in data set [1] (overnight), the “YFP concentration delivered to cell cytosol, median” value is recorded as “about 1.2 μM” and the “YFP delivered to cytosol, median as percent of the external concentration” value is listed as roughly 35%. The “cells that undergo apoptosis” value in data set [2] (10 μM peptide) is given as greater than 98%. For the same compound, the “fold increase in activity over unmodified pHD108” value in data set [2] (from EC50 in HeLa) is given as 74 fold. Moreover, in data set [2] (read-out: EC50 (peptide concentration midpoint for PE-III-dependent apoptosis), HeLa, serum-free media, 48 h, 37 °C, Alamar Blue), the EC50 is 1.9 µM. Besides, the “solubility after dissolving at pH 7 and decreasing to pH 5” value in data set [3] (50 μM, pH 7 then pH 5, centrifugation, reverse phase HPLC) is on record as “became insoluble”. Further, in data set [3] (from dried peptide, 50 μM in PBS pH 5, centrifugation 1400g then 11,000g, reverse phase HPLC), the “solubility at pH 5” value is “almost none of the peptides went into solution”. Besides, the “solubility and stability to centrifugation at pH 7” value in data set [3] (from dried peptide, 50 μM in PBS pH 7, bath sonication, 60 min, room temperature, centrifugation 1400g then 11,000g, reverse phase HPLC (Trp fluorescence peak area)) was “remains soluble at pH 7 and is not removed by centrifugation”. For the same compound, the “solubility in buffer / PBS at pH 7” value in data set [3] (pH 7, buffer or PBS) is “soluble in PBS and remained in solution at pH 7 for days”.
